Legend:
[1] = system: ΔF508-CFTR; assay type: cell-based, human; conditions: rescreen with repropagated Ad-siRNA; ΔF508-CFTR and YFP adenovirus; 10 microM forskolin and 100 microM genistein; threshold −2
Experimental: Accordingly, an assay to monitor CFTR-halide flux by using a reporter protein, halide-sensitive fluorescent protein YFP, is developed to measure the functional activity of CFTR. Cells expressing this reporter protein show enhanced fluorescence quenching of YFP by extracellular isomolar iodide solutions in the presence of activated CFTR. This is caused by the increased flux of iodide across the plasma membrane by CFTR. The fluorescence quenching is measured on a fluorescence plate reader.
Human lung epithelial cells are isolated from a ΔF508-CFTR patient, obtained after informed consent. These cells are stably transfected with ΔF508-CFTR expression plasmids and are named CFBE41o-cells (Gruenert et al., 2004). […]
CFBE41o-cells are transduced with the YFP fluorescent halide reporter adenoviral vector at a VPU of 2000 viral particles per cell, together with adenoviral vectors expressing ΔF508-CFTR, or as a positive control the wild-type CFTR. […] Plates are read in a fluorescent plate reader, equipped with injectors for the delivery of reagents to the well (Perkin-Elmer Envision 2102). Each well is read for 2 seconds at 485/530 nm (excitation/emission) prior to the addition of 110 microliter iodide-containing buffer (137 mM NaI, 2.7 mM KCl, 10 mM Na2HPO4, 1.76 mM KH2PO4 at pH 7.4). Fluorescent reading is continued for an additional 12 sec, sampling every 200 msec. […]

[2] = system: ΔF508 CFTR; experiment: Trans-epithelial chloride flux (short-circuit current, Ussing chamber) in CFTR ΔF508 homozygous primary bronchial epithelial cells; conditions: primary CF bronchial epithelial cell culture on filter support; Ad-siRNA knockdown; forskolin 10 μM, genistein 50 μM
From the text: A further validation of the correction of ΔF508 CFTR is the correction of trans-epithelial chloride transport in primary bronchial epithelial cell cultures from a CF patient, grown in a filter support. […] A standard drug addition protocol (Devor et al., 2000) can be used to detect transepithelial currents due to CFTR. Short-circuit current (Isc) across HBE primary cultures can be measured as described (Myerburg et al., 2006; Myerburg et al., 2008). Cells cultured on filter supports are mounted in modified Ussing chambers, and the cultures are continuously short-circuited with an automatic voltage clamp (Physiological Instruments, San Diego, Calif.). The basolateral bathing solution composition is: 120 mM NaCl, 25 mM NaHCO3, 3.3 mM KH2PO4, 0.8 mM K2HPO4, 1.2 mN MgCl2, 1.2 mM CaCl2, and 10 mM glucose. A basal-to-apical Cl gradient can be imposed by reducing the NaCl concentration of the apical bathing solution by replacing NaCl with equimolar Na-gluconate. The chambers are maintained at 37° C. and gassed continuously with a mixture of 95% O2-5% CO2 which fixed the pH at 7.4. Following a 5 min equilibration period, the baseline Isc is recorded. Sodium currents are blocked by addition of the epithelial sodium channel (ENaC) blocker, amiloride (10 μM), to the apical bath. […]

[3] = system: ΔF508 CFTR; experiment: Cell-surface expression of ΔF508 CFTR by cell-surface biotinylation and Western blot in CFBE41o-cells; assay type: cell-based, human
Experimental: This analysis allows a more quantitative measurement of the levels of restoration of cell-surface expressed ΔF508 CFTR, as well as the glycosylation status of the ΔF508 CFTR protein (Cheng et al., 1990). A preferred effect of a HIT would be increased cell-surface expression of ΔF508 CFTR, and especially “band C” (Cheng et al., 1990), fully glycosylated ΔF508 CFTR. The assay to measure cell surface expression of ΔF508-CFTR is performed in the following fashion: CFBE41o-cells are seeded in 60 mm cell culture dishes coated with 0.1 mg/mL bovine serum albumin (BSA), 0.03 mg/mL bovine collagen type 1 and 0.01 mg/mL human fibronectin. CFBE41o-cells are cultured in MEM containing 10% Fetal Bovine Serum, 2 mM glutamine, 100 IU/mL penicillin, 0.1 mg/mL streptomycine sulfate and 0.5 mg/mL hygromycin B at 37° C., 5% CO2 in a humidified chamber. One day after seeding, an aliquot of the Ad-siRNA is applied to each well. […] The supernatant is analyzed on Western blots (BioRad Criterion XT gels, 3-8% polyacrylamide #3450131). […] Quantification of the cell surface expression of ΔF508 CFTR was performed with Biorad Quantity One software.
Positive and negative controls for the biotinylation include incubation of cell culture at 27° C. for 48 hrs to correct misfolding and trafficking of ΔF508 CFTR, and omission of Ad-siRNAs respectively. No signal is detected when the biotinylation reagent was omitted. […]
Target sequence in this assay (P13569 other isoform, or with tags, fused parts or gaps DEL508-508): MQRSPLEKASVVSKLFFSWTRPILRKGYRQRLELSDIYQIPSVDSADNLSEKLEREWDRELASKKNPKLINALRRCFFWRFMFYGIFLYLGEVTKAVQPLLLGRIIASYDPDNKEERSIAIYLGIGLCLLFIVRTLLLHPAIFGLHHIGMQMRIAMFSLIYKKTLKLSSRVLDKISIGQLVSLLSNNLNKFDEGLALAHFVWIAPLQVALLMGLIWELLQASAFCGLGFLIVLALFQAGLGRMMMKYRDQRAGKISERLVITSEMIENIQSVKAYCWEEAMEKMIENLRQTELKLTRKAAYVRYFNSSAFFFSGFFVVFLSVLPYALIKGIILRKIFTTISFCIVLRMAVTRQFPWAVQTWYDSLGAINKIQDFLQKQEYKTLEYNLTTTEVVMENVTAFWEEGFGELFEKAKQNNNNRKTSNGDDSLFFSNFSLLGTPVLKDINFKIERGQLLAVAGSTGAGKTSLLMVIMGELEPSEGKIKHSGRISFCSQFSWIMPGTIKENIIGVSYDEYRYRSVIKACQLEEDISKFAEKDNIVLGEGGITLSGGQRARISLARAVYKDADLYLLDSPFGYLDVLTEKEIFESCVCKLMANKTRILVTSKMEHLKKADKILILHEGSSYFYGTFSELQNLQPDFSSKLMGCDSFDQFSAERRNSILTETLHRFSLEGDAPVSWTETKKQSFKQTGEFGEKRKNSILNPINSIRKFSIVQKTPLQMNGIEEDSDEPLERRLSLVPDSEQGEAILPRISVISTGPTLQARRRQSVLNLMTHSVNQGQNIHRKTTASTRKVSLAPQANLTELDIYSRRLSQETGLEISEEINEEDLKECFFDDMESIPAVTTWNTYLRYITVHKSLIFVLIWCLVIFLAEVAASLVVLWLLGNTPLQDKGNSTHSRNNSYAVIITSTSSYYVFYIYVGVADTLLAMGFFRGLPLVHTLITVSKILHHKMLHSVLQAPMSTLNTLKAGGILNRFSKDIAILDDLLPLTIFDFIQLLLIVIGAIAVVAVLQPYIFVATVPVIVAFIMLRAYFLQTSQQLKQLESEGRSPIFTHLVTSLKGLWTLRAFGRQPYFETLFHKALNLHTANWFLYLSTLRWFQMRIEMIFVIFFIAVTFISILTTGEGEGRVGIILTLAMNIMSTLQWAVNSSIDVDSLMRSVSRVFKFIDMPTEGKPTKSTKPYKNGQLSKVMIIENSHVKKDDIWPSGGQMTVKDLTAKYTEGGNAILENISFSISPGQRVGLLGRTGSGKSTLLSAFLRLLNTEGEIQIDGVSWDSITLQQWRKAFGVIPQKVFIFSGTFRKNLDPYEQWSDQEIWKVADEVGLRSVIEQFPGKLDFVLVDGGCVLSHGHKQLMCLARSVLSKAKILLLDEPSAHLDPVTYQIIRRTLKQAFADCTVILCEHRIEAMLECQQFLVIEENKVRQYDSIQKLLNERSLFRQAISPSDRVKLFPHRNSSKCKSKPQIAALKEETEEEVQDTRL

ΔF508-CFTR, sequence (P13569 other isoform, or with tags, fused parts or gaps DEL508-508): as above

UGT3A2: Ad-siRNA (adenovirus-expressed shRNA) knocking down UGT3A2; KD sequences SEQ ID NO: 56, 57; SEQ 57 used in Table 6 (guide AACATGGTCCGAGTAGAAG; listed as Homo sapiens)
Forskolin-Genistein induced halide flux in CFBE41o- [1]: −5.485 fold stdev from the mean of the negative controls
Forskolin-Genistein induced chloride flux in CF primary epithelial cells compared to control cells (non-CF) [2]: 22.9%
CFTRΔF508 cell surface expression ([3]; CFBE41o- cell culture upon TARGET Ad-siRNA, relative to E-cadherin signal, without Ad-siRNAs set at 0, 27° C. for 48 hrs set at 1): 0.906
C-band/B-band ratio ([3]; cell-surface ΔF508 CFTR, band C fully glycosylated / band B core glycosylated, CFBE41o-): 0.278
